From patent publication US20250101338A1, “BIOMASS DERIVED SURFACE-ACTIVE COMPOSITIONS AND PRODUCTS” (Cambridge Glycoscience Ltd, priority 2021, published 2025)

Assays:
Type in all cases: physicochemical
[1] = Water in oil emulsion stability test (Example 65); conditions: 0.5 mL water with 2 wt % substance + 1.5 mL sunflower oil, vortex 30 s, visual inspection
Description: 0.5 mL deionized water containing 2 wt % of the stated inventive or comparative compound was added to 1.5 mL commercial, food-grade sunflower oil, in a sample vial. The vials were each agitated with a IKA Vortex mixture for 30 seconds. The vials were left to stand and inspected visually for emulsion quality after 5 minutes, 1 hour, 4 hours and finally 24 h (FIG. 14 and FIG. 15). […] The results also show an unexpected increase in emulsifying performance for the inventive compositions comprising oligosaccharide mixture-derived surface-active agents (such as example 4-6 compositions) compared with those derived from a single monomeric sugar (xylose) alone (such as example 12 and 13 compositions).

[2] = Emulsion formation with different oil-water ratios (Example 66); conditions: water-oil ratio 1:2.5, groundnut oil, 3.0 wt % composition
Description: The ability of inventive surface-active compositions to stabilize emulsions in different mass-ratios of vegetable oil and water was investigated. Mixtures of water, vegetable oil and inventive surface-active composition were prepared as per table below, by adding groundnut oil, water, and surface-active composition in the desired mass ratio. The mixtures were heated at 60 C in a homogenizer (stirring for 10 minutes at 800 rpm, then further homogenized at this speed and ambient temperature for 5 min). The visual appearance of each mixture was acknowledged. The mixtures were then treated by centrifugation at 1500 rpm for 5 mi and the visual appearance was again acknowledged.

[3] = Dynamic foam tests (Example 69); conditions: 5 mL of 0.5 wt % aqueous solution, 40 cm^3 air bubbled at 17 cm^3/min
Description: The intensity and approximate decay-rate for the foaming behavior of the surface-active compositions in dilute aqueous solution was determined by dosing 5 mL of 0.5 wt % aqueous solution of surface-active composition to a vertically-aligned 50 m plastic serological pipette (“Stripette”). Air (40 cm^3) was bubbled through the surface-active composition solution at a rate of 17 cm^3/min via a syringe pump and the foam height upon complete addition of air recorded. The foam height was also recorded again 5 min after complete addition of air, 10 min after complete addition of air, 15 m after complete addition of air, 30 min after complete addition of air, 1 hour after complete addition of air and finally 2 hours after complete addition of air.

[4] = Flash foam generation test (Example 70); conditions: 20 mg in 4 mL deionized water (10 wt % [sic]), 2 mL shaken 30 s in 15 mL tube, duplicate average
Description: 20 mg of each surface-active composition for testing was dissolved in deionized water (4 mL) to give a 10 wt % solution, 2 mL was added to a 15 mL FALCON tube. Each falcon tube was secured in a holder before being vigorously shook for 30 seconds. The initial foam height and structure was noted. The foam height was then noted at 5 min, 10 min, 15 min, 30 min, 45 min, 1 hr and 2 hr after the initial measurement. The experiment was repeated in duplicate. Averaged results are depicted in table 5 and FIG. 11.

[5] = Lipophilic substances solubilization test, lemongrass oil (Example 71); conditions: 2 mL of 5 wt % aqueous solution, stepwise addition of 2.5 μL, duplicate
Description: After each addition, the sample was agitated with a vortex mixture for 60 s and left to stand for 5 min. If no heterogenous phase was observed visually, the oil was said to be fully soluble. If a heterogenous, immiscible biphasic or emulsion was visible, then the saturation limit for that surface-active component was said to have been exceeded. Each surface-active composition was tested in duplicate.

[6] = Aqueous hydrolytic stability by UPLC-MS (Example 73); conditions: 0.5 mg/mL
Description: Determination of aqueous stability of the test compounds was performed using UPLC-MS. A test compound 10 mg/mL stock solution was prepared by dissolving Example 11 composition (N-decyl-N-acetylxylosylamine) (inventive surface-active composition) in DMSO. Buffer solutions, comprised of simple, commercially-available acidic or basic substances in deionized water were prepared at pH 1, pH 3, pH 4, pH 5, pH 6, pH 7, pH 9, pH 11 and pH 13.

[7] = Relative viscosity, gravity flow time (Example 74); conditions: 10 mL of 10 wt % sodium dodecyl sulfate + 0.3 g NaCl + 0.655 mL of 30 wt % test solution, 27° C., triplicate
Description: The time taken for precisely 3 mL of testing mixture to pass out of the […] by gravity was recorded. The test was repeated in triplicate. Averaged results are depicted in FIG. 20 and table 9. It was unexpected that example 11 composition recorded such high viscosity over example 14 composition, which differs by a slightly smaller alkyl chain (octyl instead of decyl).

For `CCCCCCCCCCN(C(C)=O)C1OC[C@@H](O)[C@H](O)[C@H]1O` (some centres unmarked) [Example 11 composition, N-decyl N-acetyl xylosylamine], the “Time inspected by which the emulsion first appeared dispersed” value [1] was 24 h, the “Visual interpretation of results, after centrifugation” value ([2]; 1500 rpm 5 min) was “Complete phase-separation” and the “Visual interpretation of results, before centrifugation” value ([2]; homogenized at 60 C) was “Emulsion failed to form”. The “Volume of foam after given time” value ([3]; 0 min) was 36.0 cm^3, the “Volume of foam after given time” value ([3]; 5 min) was 2.0 cm^3 and the “Volume of foam after given time” value ([3]; 15 min) was 2.0 cm^3. The “Volume of foam after given time” value ([3]; 30 min) was 2.0 cm^3, the “Volume of foam after given time” value ([3]; 1 h) was 2.0 cm^3 and the “Volume of foam after given time” value ([3]; 2 h) was 2.0 cm^3. For the same compound, the “Volume of foam after given time” value ([4]; 0 min) was 8.3 cm^3, the “Volume of foam after given time” value ([4]; 5 min) was 4.8 cm^3 and the “Volume of foam after given time” value ([4]; 15 min) was 2.5 cm^3. The “Volume of foam after given time” value ([4]; 30 min) was 2.3 cm^3, the “Volume of foam after given time” value ([4]; 1 h) was 2.0 cm^3 and the “Volume of foam after given time” value ([4]; 2 h) was 2.0 cm^3. For the same compound, the “Maximum volume of lemongrass oil solubilized” value [5] was 8.75 µL, the “Stability During 1-week (daily monitoring) (% of original concentration lost to degradation)” value ([6]; Buffer pH 1, 25° C.) was “(<50%)” and the “Stability During 12-hour Assay (% of original concentration lost to degradation)” value ([6]; Buffer pH 1, 25° C.) was “(<1%) degradation”. For the same compound, the “Stability During 1-week (daily monitoring) (% of original concentration lost to degradation)” value ([6]; Buffer pH 3, 25° C.) was “(<0.1%) degradation”, the “Stability During 12-hour Assay (% of original concentration lost to degradation)” value ([6]; Buffer pH 3, 25° C.) was “(<0.1%) degradation” and the “Stability During 1-week (daily monitoring)” value ([6]; Buffer pH 4, 25° C.) was “Full stability”. For the same compound, the “Stability During 12-hour Assay” value ([6]; Buffer pH 4, 25° C.) was “Full stability”, the “Stability During 1-week (daily monitoring)” value ([6]; Buffer pH 5, 25° C.) was “Full stability” and the “Stability During 12-hour Assay” value ([6]; Buffer pH 5, 25° C.) was “Full stability”. For the same compound, the “Stability During 1-week (daily monitoring)” value ([6]; Buffer pH 6, 25° C.) was “Full stability”, the “Stability During 12-hour Assay” value ([6]; Buffer pH 6, 25° C.) was “Full stability” and the “Stability During 1-week (daily monitoring)” value ([6]; Buffer pH 7, 25° C.) was “Full stability”. For the same compound, the “Stability During 12-hour Assay” value ([6]; Buffer pH 7, 25° C.) was “Full stability”, the “Stability During 1-week (daily monitoring)” value ([6]; Buffer pH 9, 25° C.) was “Full stability” and the “Stability During 12-hour Assay” value ([6]; Buffer pH 9, 25° C.) was “Full stability”. The “Stability During 1-week (daily monitoring) (% of original concentration lost to degradation)” value ([6]; Buffer pH 11, 25° C.) was “(<0.1%) degradation”, the “Stability During 12-hour Assay (% of original concentration lost to degradation)” value ([6]; Buffer pH 11, 25° C.) was “(<0.1%) degradation” and the “Stability During 1-week (daily monitoring) (% of original concentration lost to degradation)” value ([6]; Buffer pH 13, 25° C.) was “(<10%)”. The “Stability During 12-hour Assay (% of original concentration lost to degradation)” value ([6]; Buffer pH 13, 25° C.) was “(<0.1%) degradation” and the “Average time (for 3 mL to pass out of the stripette by gravity)” value [7] was 270.3 s.
